Laboratory results as given in patent EP0863880B1, “NOVEL 1-AR(ALK)YL-IMIDAZOLIN-2-ONES CONTAINING A DISUBSTITUTED AMINE RADICAL IN THE 4TH POSITION, HAVING AN ANTI-CONVULSIVE EFFECT, AND PROCESS FOR THEIR PRODUCTION” (elbion AG, priority 1995, dated 1997).

How the values were obtained:
maximaler Elektroschock = test: maximal electroshock (MES) test, mouse i.p.; type: in vivo; conditions: Maus i.p.
s.c. Pentetrazol = test: s.c. pentetrazole (PTZ) test, mouse i.p.; type: in vivo; conditions: Maus i.p.
[1] = octanol/water partition coefficient; type: physicochemical; conditions: Octanol/Wasser, read-out: log P (Verteilungskoeffizient Octanol/Wasser)
Neurotoxizität = conditions: Ratte, p.o.
s.c. Pentetrazol-Test = test: s.c. pentetrazole test, rat
maximalen Elektroschock = test: maximal electroshock test, rat p.o.; conditions: po, read-out: ED50 (p.o.)

| logP [1] | Compound | Wirkung in % der geschützten Tiere (maximaler Elektroschock; Dosis 100 mg/kg) | Wirkung in % der geschützten Tiere (s.c. Pentetrazol; Dosis 100 mg/kg) | Wirkung in % der geschützten Tiere (maximaler Elektroschock; Dosis 300 mg/kg) | Wirkung in % der geschützten Tiere (s.c. Pentetrazol; Dosis 300 mg/kg) | further results |
| --- | --- | --- | --- | --- | --- | --- |
| – | CCCC(CCC)C(=O)O [Valproat, reference compound] | 0% | 30% | – | – | – |
| 1.53 | COc1ccc(N2CC(N3CCCCC3)=NC2=O)cc1 [Verbindung 7] | – | 100% | 100% | – | – |
| 0.97 | O=C1N=C(N2CCOCC2)CN1c1ccc(F)cc1 [Verbindung 9] | 30% | 100% | – | – | – |
| – | NC(=O)N1c2ccccc2C=Cc2ccccc21 [Carbamazepin, reference compound] | 100% | 0% | – | – | – |
| 0.64 | O=C1N=C(N2CCOCC2)CN1c1ccccc1 [Verbindung 1] | 30% | 30% | – | – | – |
| 2.56 | O=C1N=C(N2CCCCCC2)CN1c1ccc(Cl)cc1 [Verbindung 11] | – | – | 100% | 40% | – |
| 1.61 | CN(C)C1=NC(=O)N(c2ccc(Cl)cc2)C1 [Verbindung 6] | – | 20% | 100% | – | – |
| 2.17 | CN1CCN(C2=NC(=O)N(c3ccc(Cl)cc3)C2)CC1 [Verbindung 5] | – | – | 100% | 100% | – |
| 1.28 | O=C1N=C(N2CCOCC2)CN1c1cccc(Cl)c1 [Verbindung 10] | – | – | 10% | 70% | – |
| 2.29 | O=C1N=C(N2CCCCC2)CN1c1ccc(Cl)cc1 [Verbindung 3] | 100% | 100% | – | – | – |
| 1.45 | O=C1N=C(N2CCOCC2)CN1c1ccc(Br)cc1 [Verbindung 8] | – | 100% | 30% | – | – |
| 0.48 | O=C1N=C(N2CCOCC2)CN1Cc1ccccc1 [Verbindung 4] | – | – | 30% | 30% | – |

| Compound | logP [1] | Wirkung in % der geschützten Tiere (maximaler Elektroschock; Dosis 100 mg/kg) | Wirkung in % der geschützten Tiere (s.c. Pentetrazol; Dosis 100 mg/kg) | Wirkung in % der geschützten Tiere (maximaler Elektroschock; Dosis 300 mg/kg) | Wirkung in % der geschützten Tiere (s.c. Pentetrazol; Dosis 300 mg/kg) | further results |
| --- | --- | --- | --- | --- | --- | --- |
| O=C1N=C(N2CCOCC2)CN1c1ccc(Cl)cc1 [Verbindung 2, 1-(4-Chlorphenyl)-4-morpholinoimidazolin-2-on] | 1.48 | – | – | 30% | – | Wirkung in % der geschützten Tiere (s.c. Pentetrazol; Dosis 30 mg/kg): 70%; NT50 (Neurotoxizität): > 400 mg/kg; ED50 (s.c. Pentetrazol-Test): 16 mg/kg; ED50 (maximalen Elektroschock): 21 mg/kg |
